Test results from ChEMBL document CHEMBL1909557, “Oligopeptide cyclophilin inhibitors: a reassessment” (Eur J Med Chem, 2011).
Active and inactive are the calls of the source. The rule behind the calls is not given here. Peptide text beside a SMILES is read from it.

How the values were obtained:
[1] = biological target: Peptidyl-prolyl cis-trans isomerase A (Homo sapiens) (UniProt P62937); assay: Inhibition of PPIase activity of human recombinant cyclophilin-A using succinyl-Ala-Ala-Pro-Phe-4-nitroanilide as substrate at 100 uM by protease coupled assay
Sequence of Peptidyl-prolyl cis-trans isomerase A (Homo sapiens) (P62937 whole entry, looked up): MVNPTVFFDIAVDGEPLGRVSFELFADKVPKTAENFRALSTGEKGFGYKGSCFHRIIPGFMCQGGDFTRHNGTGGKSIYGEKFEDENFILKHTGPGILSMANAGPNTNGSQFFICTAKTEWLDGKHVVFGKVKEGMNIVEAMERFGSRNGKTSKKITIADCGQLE

[2] = biological target: Peptidyl-prolyl cis-trans isomerase A (Homo sapiens) (UniProt P62937); assay: Inhibition of PPIase activity of human recombinant cyclophilin-A using succinyl-Ala-Ala-Pro-Phe-4-nitroanilide as substrate at 100 uM pretreated for 3 hrs before substrate addition by spectrophotometry
[3] = biological target: Peptidyl-prolyl cis-trans isomerase A (Homo sapiens) (UniProt P62937); assay: Binding affinity to human recombinant cyclophilin-A up to 25 uM by isothermal titration calorimetry assay

inhibition [1]: inactive | inhibition [2]: inactive | Activity [3]: inactive
Structure (SMILES): N[C@@H](Cc1c[nH]c2ccccc12)C(=O)NCC(=O)N1CCC[C@H]1C(=O)O (H-Trp-Gly-Pro-OH)
